Measurements: patent US20240315992A1, “AMINOXY ACID-BASED ANTIBACTERIAL COMPOUNDS AND METHODS THEREOF” (The University of Hong Kong, priority 2023, published 2024)
pIC50: −log10 of the molar value. In brackets after ≈: the same amount, converted by molar mass.

Key:
[1] = system: Staphylococcus aureus ATCC 29213; experiment: Scanning and transmission electron microscopy; type: cell-based; details: 24 hours treatment, SEM and TEM
Description: FIGS. 16A-16B are the images showing the compound 8 and compound 35 can induced the cell burst of Staphylococcus aureus. (FIG. 16A) Cells are imaged under scanning electron microscope. (FIG. 16B) Cells are imaged under transmission electron microscope.
Briefly, an overnight culture of Staphylococcus aureus ATCC 29213 was sub-cultured 1:100 in fresh CAMH and regrown for 2 hours. Then the bacteria were treated with compound or DMSO negative control for 24 hours. The bacterial pellet was resuspended in PBS and loaded on 0.22 μm filter membrane. The bacteria were fixed on the membrane by 2.5% glutaraldehyde for overnight at 4° C. The filter membranes were washed by PBS and subsequently dehydrated using ethanol as shown below.
The samples were submitted to HKU Electron Microscope Unit (EMU) for critical point drying, mounting and coating of the specimens. Samples were then observed using LEO 1530 FEG Scanning Electron Microscope.
Briefly, an overnight culture of Staphylococcus aureus ATCC 29213 was sub-cultured 1:100 in fresh CAMH and regrown for 2 hours. Then the bacteria were treated with compound or negative control DMSO for 24 hours. The bacterial pellet was then washed by PBS and fixed in cacodylate buffer (0.1 M sodium cacodylate-HCl buffer pH 7.4) for 1 hour at 4° C. […]

[2] = system: M. smegmatis mc^2155; experiment: MIC by CLSI broth micro-dilution, M. smegmatis; type: cell-based, Mycobacterium smegmatis; details: Mycolicibacterium smegmatis; M. smegmatis mc^2155, BHI medium; read-out: Minimum inhibitory concentration
Description: (§1) Aminoxy acids were synthesized by the standard peptide coupling procedures. Minimum inhibitory concentration was determined using CLSI broth micro-dilution method in 96-wells microtitre plates. Minimum inhibitory concentration is defined as the lowest concentration of the compound that inhibits visible growth of the bacteria. All experiments were performed three times. 24 compounds including aminoxy acid monomers and dipeptides have been identified to show toxicity against multidrug resistant Staphylococcus aureus Mu3 and summarized in Table 1. The minimum inhibitory concentration of compound 8 and compound 35 on other gram-positive bacteria was also evaluated and summarized in Table 2. […] As shown in FIGS. 3A-3B there are no observable hemolysis for compound 8 and compound 35 towards human red blood cell.
(§2) Bacteria were streaked from the glycerol stock into BHI agar and were incubated overnight. Single colony was picked for the overnight culture in cation-adjusted Mueller Hinton broth (CAMH), LB or BHI. The overnight culture was sub-cultured and regrew to exponential phase for the experiment.
(§3) MIC was determined by CLSI broth micro-dilution method in 96-wells microtitre plates. […] Optical density was recorded by DTX 880 multimode detector (Beckman Coulter, California, US). […]

[3] = system: MSSA ATCC 35556; experiment: MIC by CLSI broth micro-dilution, MSSA ATCC 35556; type: cell-based; details: Staphylococcus aureus, read-out: Minimum inhibitory concentration
Description: as §1, §2, §3

[4] = system: NIH3T3 cells; experiment: Mammalian cell cytotoxicity assay (MTT), NIH3T3; type: cell-based; details: for pIC50: Mus musculus, NIH3T3, MTT assay, 24 hours, read-out: IC50, toxicity towards mammalian cells NIH3T3; for toxicity against mammalian cell NIH3T3: at 16 folded MIC (50 μM compound 8, 12.5 μM compound 35)
Description: NIH3T3 cells were cultured in DMEM supplemented with 10% fetal bovine serum (FBS), 100 U/ml penicillin and 0.1 mg/ml streptomycin. Cells were grown in treated culture flasks at 37° C. in a 5% CO2 humidified incubator and passaged every 2-3 days.
(§4) In the treated culture dish, cells were washed by PBS and then trypsinized. DMEM was added to quench the reaction. Cells were centrifuged and resuspended into fresh DMEM. Cells were then seeded in 96-well microtitre plate (100 μL, 5000 cells per well) for 24 hours before addition of compounds. The compounds were two-fold serial diluted by DMSO in a DMSO-compatible 96-well plate. 1 μL of compound in DMSO is transferred into the 96-well microtitre preparation plate containing 100 μL DMEM medium. The medium in culture plate was removed and compounds in preparation plate were transferred to culture plate. Equal volume of DMSO was used as negative control.
(§5) After 24 hours of incubation of cells, cell viability was measured by MTT assay. In MTT assay, 20 μL 5 mg/mL MTT solution in PBS was added to cell medium and cultured for 3 hours. The medium was then removed and 50 μL DMSO was added and cultured for 10 minutes. Absorbance at 595 nm was measured spectrophotometrically (Beckman Coulter DTX 880 Multimode Detector) and normalized to DMSO group. Biological replicates were performed.

[5] = system: MDCK; experiment: Mammalian cell cytotoxicity assay (MTT), MDCK; type: cell-based; details: at 16 folded MIC (50 μM compound 8, 12.5 μM compound 35)
Description: FIGS. 2A-2B are the bar graphs showing the cytotoxicity of compound 8 (FIG. 2A) and compound 35 (FIG. 2B) towards mammalian cell NIH3T3, MDCK and MIHA. % survival is mean±S.D normalized to DMSO as the negative control of a representative experiment. Biological triplicates were conducted.
as §4, §5

[6] = system: E. faecalis clinical strain; experiment: MIC by CLSI broth micro-dilution, E. faecalis; type: cell-based; details: Enterococcus faecalis, BHI medium, read-out: Minimum inhibitory concentration
Description: as §1, §2, §3

[7] = system: B. subtilis WT168; experiment: MIC by CLSI broth micro-dilution, B. subtilis WT168; type: cell-based; details: Bacillus subtilis, read-out: Minimum inhibitory concentration
Description: as §1, §2, §3

[8] = system: Staphylococcus aureus ATCC 29213; experiment: Autolysis, optical density of culture; type: cell-based; details: 10×MIC, 24 hours
Description: Staphylococcus aureus ATCC 29213 in CAMH was challenged with […] compounds 8 or compound 35. OD595 was measured after 24 hours. Data represented the mean±S.D. of biological triplicates. Statistical analysis was performed by unpaired t test in 95% confidence interval (*=p<0.05; **p<0.01; ***p<0.001; ****[…]).
The overnight culture of Staphylococcus aureus ATCC 29213 was subcultured, regrown to exponential phase and then diluted to OD595=0.4. Bacteria were treated by 10×MIC of compound 8 and compound 35. At T=24 hour, OD595 was measured.

| Structure (SMILES) | cell morphology under electron microscope [1] | MIC [2] | MIC [3] | pIC50 [4] | toxicity against mammalian cell NIH3T3 [4] | toxicity against mammalian cell MDCK [5] | MIC [6] | MIC [7] | optical density (OD595) of culture, accelerated autolysis [8] |
| --- | --- | --- | --- | --- | --- | --- | --- | --- | --- |
| CC(C)C[C@H](ONC(=O)[C@@H](COCc1ccccc1)ONC(=O)c1cc(C(F)(F)F)cc(C(F)(F)F)c1)C(=O)Nc1ccccc1 [Compound 8] | severe cell abnormality including cell burst and irregular shape of cell wall | 12.5 µM (≈ 8.19 µg/mL) | 3.13 µM (≈ 2.05 µg/mL) | < 4.30 | minimal toxicity | minimal toxicity | 3.13 µM (≈ 2.05 µg/mL) | 3.13 µM (≈ 2.05 µg/mL) | reduction of the optical density |
| CC(C)C[C@H](ONC(=O)[C@@H](COCc1ccccc1)ONC(=O)c1cc(C(F)(F)F)cc(C(F)(F)F)c1)C(=O)Nc1ccc2c(c1)OC(F)(F)O2 [Compound 35] | severe cell abnormality including cell burst and irregular shape of cell wall | 1.56 µM (≈ 1.15 µg/mL) | 0.78 µM (≈ 0.574 µg/mL) | < 4.30 | minimal toxicity | minimal toxicity | 6.25 µM (≈ 4.6 µg/mL) | 1.56 µM (≈ 1.15 µg/mL) | reduction of the optical density |
